According to US7276339B2 (H. Lundbeck A/S, priority 1998, dated 2007):
Like-named read-outs stand apart in the source and are kept apart here. Non-standard residues stand in square brackets, D forms with d. Residues, ends and D or L forms follow the SMILES beside them. No end group written: not given here. *: point of attachment. NMeF = CN[C@@H](Cc1ccccc1)C(=O)O; X1 = O=C(Cc1ccc(O)cc1)*

Experiments:
NPFF1 (SNORF2) = biological target: T1, NPFF1 (SNORF2) (Rattus norvegicus, UniProt Q9EP86); assay: Voltage-clamp electrophysiology, Xenopus oocytes injected with SNORF2 (NPFF1) and chimeric Gαq/z RNA; type: cell-based; details: for activation of oocytes injected with SNORF2 synthetic RNA: concentration not given; for inward current response: 1 μM, oocytes with SNORF2 + Gαq/z, holding potential −80 mV
T1 construct: linearized plasmids or PCR products containing the complete coding region of the genes; expressed in transfected cells; host or cells: Xenopus laevis oocytes injected with synthetic RNA (T7 transcripts)
Method: Oocytes were harvested from Xenopus laevis and injected with mRNA transcripts as previously described (Quick and Lester, 1994; Smith et al., 1997). […] Three to eight hours prior to recording, oocytes were injected with 500 pg Gαq/z mRNA in order to observe coupling to Ca^++ activated Cl^− currents. Dual electrode voltage clamp (Axon Instruments Inc.) was performed using 3 M KCl-filled glass microelectrodes having resistances of 1-2 Mohm. Unless otherwise specified, oocytes were voltage clamped at a holding potential of −80 mV. During recordings, oocytes were bathed in continuously flowing (1-3 ml/min) medium containing 96 mM NaCl, 2 mM KCl, 1.8 mM CaCl2, 1 mM MgCl2, and 5 mM HEPES, pH 7.5 (ND96). Drugs were applied either by local perfusion from a […] glass capillary tube fixed at a distance of 0.5 mm from the oocyte, or by switching from a series of gravity fed perfusion lines.
Heterologous expression of GPCRs in Xenopus oocytes has been widely used to determine the identity of signaling pathways activated by agonist stimulation (Gundersen et al., 1983; Takahashi et al., 1987). Activation of the phospholipase C (PLC) pathway is assayed by applying test compound in ND96 solution to oocytes previously injected with mRNA for the mammalian receptor and observing inward currents at a holding potential of −80 mV. The appearance of currents that reverse at −25 mV and display other properties of the Ca^++-activated Cl^− (chloride) channel is indicative of mammalian receptor-activation of PLC and release of IP3 and intracellular Ca^++.

rat NPFF1 receptor = rat NPFF1 receptor (Rattus norvegicus, UniProt Q9EP86); assay: [125I]D-Tyr-NPFF radioligand binding, membranes of COS-7 cells transiently expressing cloned rat NPFF1; set-up: expressed in transfected cells; host or cells: COS-7 (transient)
Method: Transfected cells from culture flasks are scraped into 5 ml of 20 mM Tris-HCl, 5 mM EDTA, pH 7.5, and lysed by sonication. The cell lysates are centrifuged at 1000 rpm for 5 min. at 4° C., and the supernatant is centrifuged at 30,000×g for 20 min. at 4° C. […] Optimal membrane suspension dilutions, defined as the protein concentration required to bind less than 10% of the added radioligand, […], unlabeled compounds, and binding buffer to a final volume of 250 μl. In equilibrium saturation binding assays membrane preparations are incubated in the presence of increasing concentrations of [^3H]-labeled compound. […] Competition assay: 50 pM radioligand, 10-12 points. Binding reaction mixtures are incubated for 2 hr at 25° C., and the reaction stopped by filtration through a double layer of GF filters treated with 0.1% polyethyleneimine, using a cell harvester. Wash buffer: 50 mM Tris-HCl, 0.1% BSA. Radioactivity may be measured by scintillation counting and data are analyzed by a computerized non-linear regression program. Non-specific binding is defined as the amount of radioactivity remaining after incubation of membrane protein in the presence of 1 μM final concentration […]. Protein concentration may be measured by the Bradford method using Bio-Rad Reagent, with bovine serum albumin as a standard.
Cos-7 cells transiently expressing the gene encoding the novel rat NPFF1 receptor were used for pharmacological evaluation.

[1] = biological target: rat spinal cord membrane receptor; assay: [125I]D-Tyr-NPFF radioligand binding, rat spinal cord membranes; details: competition of [125I]D-Tyr-NPFF binding; * = differs from NPFF1
Source text: The binding profile of rat NPFF1 was compared to that of rat spinal cord membranes. […] (See * Table 2).

[2] = competition of [125I]D-Tyr-NPFF binding, COS-7 membranes
[3] = competition of [125I]D-Tyr-NPFF binding, COS-7 membranes, read-out: pKi for cloned rat NPFF1 receptor binding in COS-7 cells, MEAN (converted)

Chain of rat NPFF1 receptor (Q9EP86 whole entry): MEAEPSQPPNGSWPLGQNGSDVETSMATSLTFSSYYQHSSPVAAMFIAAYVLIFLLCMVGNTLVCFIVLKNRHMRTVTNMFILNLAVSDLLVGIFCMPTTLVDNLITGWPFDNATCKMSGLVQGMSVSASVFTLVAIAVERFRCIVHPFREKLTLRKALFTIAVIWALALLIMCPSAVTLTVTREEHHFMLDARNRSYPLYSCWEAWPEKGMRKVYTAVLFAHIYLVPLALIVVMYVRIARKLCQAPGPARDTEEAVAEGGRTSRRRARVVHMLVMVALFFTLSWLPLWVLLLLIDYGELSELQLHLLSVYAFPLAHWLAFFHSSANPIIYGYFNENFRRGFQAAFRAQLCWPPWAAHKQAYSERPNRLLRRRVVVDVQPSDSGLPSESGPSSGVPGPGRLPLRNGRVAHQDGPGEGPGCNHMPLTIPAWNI
T1 sequence (Q9EP86 whole entry): as above

## NCCc1c[nH]c2ccc(O)cc12 [5-HT]
NPFF1 (SNORF2)
  activation of oocytes injected with SNORF2 synthetic RNA: failed to activate

## CC(C)C[C@@H](NC(=O)[C@H](N)Cc1ccc(O)cc1)C(=O)N[C@@H](Cc1ccccc1)C(=O)N[C@@H](CCC(N)=O)C(=O)N1CCC[C@H]1C(=O)N[C@@H](CCC(N)=O)C(=O)N[C@@H](CCCNC(=N)N)C(=O)N[C@@H](Cc1ccccc1)C(N)=O [(2D)Y8Fa] (H-[dY][dL]FQPQRF-NH2; N-terminus assumed)
Rat NPFF1 receptor; [2]
  pKi for cloned rat NPFF1 receptor binding in COS-7 cells, MEAN: 8.33
[1]
  pKi for rat spinal cord membrane receptor binding, MEAN: *9.212

## CC(C)C[C@@H](NC(=O)[C@H](N)Cc1ccc(O)cc1)C(=O)N(C)[C@@H](Cc1ccccc1)C(=O)N[C@@H](CCC(N)=O)C(=O)N1CCC[C@H]1C(=O)N[C@@H](CCC(N)=O)C(=O)N[C@@H](CCCNC(=N)N)C(=O)N[C@@H](Cc1ccccc1)C(N)=O [(2DME)Y8Fa] (H-[dY][dL][NMeF]QPQRF-NH2; N-terminus assumed)
Rat NPFF1 receptor; [2]
  pKi for cloned rat NPFF1 receptor binding in COS-7 cells, MEAN: 9.2
[1]
  pKi for rat spinal cord membrane receptor binding, MEAN: 9.57

## CC(C)C[C@@H](NC(=O)[C@H](N)Cc1ccc(O)cc1)C(=O)N[C@H](Cc1ccccc1)C(=O)N[C@@H](CCC(N)=O)C(=O)N1CCC[C@H]1C(=O)N[C@@H](CCC(N)=O)C(=O)N[C@@H](CCCNC(=N)N)C(=O)N[C@@H](Cc1ccccc1)C(N)=O [(3D)Y8Fa] (H-[dY][dL][dF]QPQRF-NH2; N-terminus assumed)
[1]
  pKi for rat spinal cord membrane receptor binding, MEAN: 9.123

## CSCC[C@H](NC(=O)[C@H](Cc1ccc(OS(=O)(=O)O)cc1)NC(=O)[C@@H](N)CC(=O)O)C(=O)NCC(=O)N[C@@H](Cc1c[nH]c2ccccc12)C(=O)N[C@@H](CCSC)C(=O)N[C@@H](CC(=O)O)C(=O)N[C@@H](Cc1ccccc1)C(N)=O [CCK8]
Rat NPFF1 receptor; [2]
  pKi for cloned rat NPFF1 receptor binding in COS-7 cells, MEAN: ≤ 5

## N=C(N)NCCC[C@@H](N)C(=O)O [D-arginine]
Rat NPFF1 receptor; [3]
  Ki: ≥ 10 µM

## N=C(N)NCCC[C@H](NC(=O)[C@H](Cc1ccccc1)NC(=O)[C@@H](N)Cc1ccccc1)C(=O)N[C@@H](Cc1ccccc1)C(N)=O [FFRF] (H-FFRF-NH2; N-terminus and C-terminus assumed)
Rat NPFF1 receptor; [2]
  pKi for cloned rat NPFF1 receptor binding in COS-7 cells, MEAN: 8
[1]
  pKi for rat spinal cord membrane receptor binding, MEAN: 8.98

## C[C@@H](O)[C@H](NC(=O)[C@@H](N)Cc1ccccc1)C(=O)N[C@@H](CCCNC(=N)N)C(=O)N[C@@H](Cc1ccccc1)C(N)=O [FTRF] (H-FTRF-NH2; N-terminus and C-terminus assumed)
Rat NPFF1 receptor; [2]
  pKi for cloned rat NPFF1 receptor binding in COS-7 cells, MEAN: 7.87
[1]
  pKi for rat spinal cord membrane receptor binding, MEAN: 8.16

## N=C(N)NCCC[C@H](N)C(=O)O [L-arginine]
Rat NPFF1 receptor; [3]
  Ki: ≥ 10 µM

## CSCC[C@H](NC(=O)[C@@H]1CCCN1)C(=O)N[C@@H](CCCNC(=N)N)C(=O)N[C@@H](Cc1ccccc1)C(N)=O [PMRFa] (H-PMRF-NH2; N-terminus assumed)
[1]
  pKi for rat spinal cord membrane receptor binding, MEAN: 9.37

## CC(C)C[C@H](NC(=O)[C@H](Cc1ccccc1)NC(=O)Cc1ccc(O)cc1)C(=O)N[C@@H](Cc1ccccc1)C(=O)N[C@@H](CCC(N)=O)C(=O)N1CCC[C@H]1C(=O)N[C@@H](CCC(N)=O)C(=O)N[C@@H](CCCNC(=N)N)C(N)=O [desamino-nor-Y8Ra] (X1-FLFQPQR-NH2)
Rat NPFF1 receptor; [2]
  pKi for cloned rat NPFF1 receptor binding in COS-7 cells, MEAN: 7.27
[1]
  pKi for rat spinal cord membrane receptor binding, MEAN: 7.51

## CNCCCN1c2ccccc2CCc2ccccc21 [desipramine]
Rat NPFF1 receptor; [3]
  Ki: ≥ 10 µM

## NCCc1ccc(O)c(O)c1 [dopamine]
Rat NPFF1 receptor; [3]
  Ki: ≥ 10 µM

## CCNC(C)Cc1cccc(C(F)(F)F)c1 (stereo not drawn) [fenfluramine]
Rat NPFF1 receptor; [3]
  Ki: ≥ 10 µM

## COc1ccc2c(c1)[nH]c1c(C)nccc12 [harmine]
Rat NPFF1 receptor
  Ki: ≥ 10 µM

## C[C@@H]1CN([C@H]2CC[C@](C#N)(c3ccc(F)cc3)CC2)CC[C@]1(C(=O)O)c1ccccc1 [levocabastine]
Rat NPFF1 receptor; [3]
  Ki: ≥ 10 µM

## CC(C)C[C@H](NC(=O)[C@H](CCCCN)NC(=O)[C@H](CCCN=C(N)N)NC(=O)[C@H](C)NC(=O)[C@H](CO)NC(=O)[C@H](CCCCN)NC(=O)[C@H](CCCN=C(N)N)NC(=O)[C@H](C)NC(=O)CNC(=O)[C@@H](NC(=O)[C@H](Cc1ccccc1)NC(=O)CNC(=O)CNC(=O)[C@@H](N)Cc1ccccc1)[C@@H](C)O)C(=O)N[C@@H](C)C(=O)N[C@@H](CC(N)=O)C(=O)N[C@@H](CCC(N)=O)C(=O)O [nociceptin]
Rat NPFF1 receptor
  Ki: ≥ 10 µM

## Cc1nc2sccn2c(=O)c1CCN1CCC(=C(c2ccc(F)cc2)c2ccc(F)cc2)CC1 [ritanserine]
Rat NPFF1 receptor; [3]
  Ki: ≥ 10 µM

## AGEGLSSPYWSLAAPQRF-NH2 [[Y^9]A18Fa]
[1]
  pKi for rat spinal cord membrane receptor binding, MEAN: *8.502
NPFF1 (SNORF2)
  inward current response: displayed activity

## Dynorphin A1-13
[1]
  pKi for rat spinal cord membrane receptor binding, MEAN: *5.700

## H-KHQYLRF-NH2 [AF-2, H-Lys-His-Gln-Tyr-Leu-Arg-Phe-NH2]
Rat NPFF1 receptor; [3]
  Ki: 0.0948 µM
[1]
  pKi for rat spinal cord membrane receptor binding, MEAN: *7.965

## H-KNQFIRF-NH2 [AF-1, H2N-Lys-Asn-Gln-Phe-Ile-Arg-Phe-NH2]
Rat NPFF1 receptor; [3]
  Ki: 0.232 µM
[1]
  pKi for rat spinal cord membrane receptor binding, MEAN: *7.563

## H-PDVDHVFLRF-NH2 [SchistFLRF]
[1]
  pKi for rat spinal cord membrane receptor binding, MEAN: 6.39

## PDKDFIVNPSDLVLDNKAALRDYLRQINEYFAIIGRPRF-NH2 (C-terminus assumed) [Neuropeptide F]
Rat NPFF1 receptor; [2]
  pKi for cloned rat NPFF1 receptor binding in COS-7 cells, MEAN: 6.11
[1]
  pKi for rat spinal cord membrane receptor binding, MEAN: *8.100

## TEPGLEEVGEIEQKQLQ [nocistatin]
Rat NPFF1 receptor; [2]
  pKi for cloned rat NPFF1 receptor binding in COS-7 cells, MEAN: ≤ 5

## YLFQPQRF-NH2 [Y8Fa]
[1]
  pKi for rat spinal cord membrane receptor binding, MEAN: *9.189
NPFF1 (SNORF2)
  inward current response: displayed activity

## melanin concentrating hormone
NPFF1 (SNORF2)
  activation of oocytes injected with SNORF2 synthetic RNA: failed to activate

## orexin B
NPFF1 (SNORF2)
  activation of oocytes injected with SNORF2 synthetic RNA: failed to activate

B1: CCK: unrelated neuropeptide (peptide, UniProt P06307 21-115, looked up)
Cholecystokinin: QPVPPADPAGSGLQRAEEAPRRQLRVSQRTDGESRAHLGALLARYIQQARKAPSGRMSIVKNLQNLDPSHRISDRDYMGWMDFGRRSAEEYEYPS
modifications: Cholecystokinin
notes: unrelated neuropeptide
NPFF1 (SNORF2)
  activation of oocytes injected with SNORF2 synthetic RNA: failed to activate
